From patent US6864068B2, “Antifungal proteins” (Syngenta Limited, priority 1995, dated 2005)

Experiments:
Assay type in all cases: cell-based
F culmorum [1] = experiment: Specific antifungal activity of Rs-AFP2 isoforms in SMF− and SMF+ media; set-up: IC50 SMF− / IC50 SMF+: unit not given here; conditions: for RELATIVE SPECIFIC ACTIVITY (%) IN MEDIUM SMF+ / RELATIVE SPECIFIC ACTIVITY (%) IN MEDIUM SMF−: 1/IC50 of mutant divided by that of yRs-AFP2 x 100, 48 hour incubation, preliminary tests; for RELATIVE SPECIFIC ACTIVITY (%) IN MEDIUM SMF+: SMF with 1 mM CaCl2 and 50 mM KCl; for RELATIVE SPECIFIC ACTIVITY (%) IN MEDIUM SMF−: low ionic strength medium; for IC50 SMF+ / IC50 SMF−: 72 hours growth, triplicate; for IC50 SMF+: high salt medium (1 mM CaCl2, 50 mM KCl); for IC50 SMF− / effect of substitution on antifungal activity in SMF−, in words: low salt medium; for effect of substitution on antifungal activity in SMF+, in words / effect of substitution on antifungal activity in SMF−, in words: Table 2 tests; for effect of substitution on antifungal activity in SMF+, in words: high salt medium; for relative specific antifungal activity (1/IC50), FIG. 6, in words: medium SMF+, Rs-AFP2 set at 100
Description: For each isoform, two independent purifications were carried out and the antifungal activity was determined in duplicate using F culmorum as a test fungus in two different media: a low ionic strength medium called SMF-(Terras et al, 1992, J Biol Chem, 267:15301-15309) and the same medium supplemented with 1 mM CaCl2 and 50 mM KCl called SMF+. The presence of salts in the test medium, especially salts with divalent cations, reduces the specific activity of Rs-AFP2. Seed-purified as well as yeast-expressed wild type Rs-AFP2 served as a control in the assays.
The relative specific activity is expressed as the specific activity of the mutant divided by the specific activity of yRs-AFP2 and multiplied by 100. […] The specific activity was measured in medium SMF−and SMF+.
Deviations are given as standard error of the mean (sem) based on the triplicate experiments. In SMF−, the medium without added salts, most of the derivatives show no decrease or only a minor decrease in antifungal activity, while in SMF+, the medium with added salts, there is a significant decrease in antifungal activity for several Rs-AFP2 isoforms.

F culmorum [2] = experiment: Growth inhibition in SMF with varying CaCl2 or KCl (FIG. 7); conditions: for reduction of antifungal activity by cations, compared with wild-type Rs-AFP2: FIG. 7; for activity in the presence of 100 mM KCl: SMF with 100 mM KCl, FIG. 7, 10 μg/ml; for growth inhibition in the presence of 5mM CaCl2: protein 10 μg/ml, SMF with 5mM CaCl2
Description: Their antifungal activity was determined in SMF with increasing Ca^2+ or K^+ concentration and compared with that of plant-derivable wild type Rs-AFP2 (isolated from seed) as well as yeast purified Rs-AFP2. FIG. 7 is a graph of the percentage growth inhibition of F culmorum caused by 10 μg/ml of yeast-purified Rs-AFP2 (SEQ ID NO: 20) (open circles), seed-purified Rs-AFP2 (SEQ ID NO: 77) (closed circles), Rs-AFP2/G9R (SEQ ID NO: 38) (squares) and Rs-AFP2/V39R (SEQ ID NO: 43) (triangles) in a medium consisting of SMF with varying concentrations of CaCl2 (panel A) and KCl (panel B).

Alternaria brassicicola = experiment: Antifungal activity in three media differing in ionic strength (Table 3); conditions: for IC50 VALUES, A brassicicola, SMF + 1 mM CaCl2/50 mM KCl / IC50 VALUES, A brassicicola, SMF + 5 mM CaCl2/50 mM KCl / IC50 VALUES, A brassicicola, SMF: 72 hours; for activity against A brassicola compared with Rs-AFP2, in words: Table 3 data
Description: (§1) The antifungal activity of the G9R and V39R Rs-AFP2 isoforms was also assessed on a set of seven different phytopathogenic fungi in three media differing in ionic strength: SMF−, SMF plus 1 mM CaCl2 and 50 mM KCl, and SMF plus 5 mM CaCl2 and 50 mM KCl. The fungi tested were: Alternaria brassicicola, Ascochyta pisi, Botrytis cinerea, Fusarium culmorum, Nectria haematococca, Phoma betae and Verticillium dahliae.

Ascochyta pisi = experiment: as above; conditions: for IC50 VALUES, A pisi, SMF + 1 mM CaCl2/50 mM KCl / IC50 VALUES, A pisi, SMF + 5 mM CaCl2/50 mM KCl / IC50 VALUES, A pisi, SMF: 72 hours; for activity against A pisi compared with Rs-AFP2, in words: Table 3 data
Description: as §1

Botrytis cinerea = experiment: as above; conditions: for IC50 VALUES, B cinerea, SMF + 1 mM CaCl2/50 mM KCl / IC50 VALUES, B cinerea, SMF + 5 mM CaCl2/50 mM KCl / IC50 VALUES, B cinerea, SMF: 72 hours; for activity against B cinerea compared with Rs-AFP2, in words: Table 3 data
Description: as §1

Fusarium culmorum = experiment: as above; conditions: for IC50 VALUES, F culmorum, SMF + 1 mM CaCl2/50 mM KCl / IC50 VALUES, F culmorum, SMF + 5 mM CaCl2/50 mM KCl / IC50 VALUES, F culmorum, SMF: 96 hours; for fold activity relative to Rs-AFP2 against F culmorum: SMF plus 1 mM CaCl2 and 50 mM KCl
Description: as §1

Nectria haematococca = experiment: as above; conditions: for IC50 VALUES, N haematococca, SMF + 1 mM CaCl2/50 mM KCl / IC50 VALUES, N haematococca, SMF + 5 mM CaCl2/50 mM KCl / IC50 VALUES, N haematococca, SMF: 72 hours; for fold activity relative to Rs-AFP2 against N haematococca: SMF plus 1 mM CaCl2 and 50 mM KCl
Description: as §1

Phoma betae = experiment: as above; conditions: 72 hours
Description: as §1

Verticillium dahliae = experiment: as above; conditions: for IC50 VALUES, V dahliae, SMF + 1 mM CaCl2/50 mM KCl / IC50 VALUES, V dahliae, SMF + 5 mM CaCl2/50 mM KCl / IC50 VALUES, V dahliae, SMF: 96 hours; for fold activity relative to Rs-AFP2 against V dahliae: SMF plus 1 mM CaCl2 and 50 mM KCl
Description: as §1

Row | Substance | RELATIVE SPECIFIC ACTIVITY (%) IN MEDIUM SMF+ (F culmorum [1]) [%] | RELATIVE SPECIFIC ACTIVITY (%) IN MEDIUM SMF− (F culmorum [1]) [%] | IC50 SMF+ (F culmorum [1]) | IC50 SMF− (F culmorum [1]) | antifungal activity in SMF+ relative to wild-type Rs-AFP2 (F culmorum [1]) | effect of substitution on antifungal activity in SMF+, in words (F culmorum [1]) | effect of substitution on antifungal activity in SMF−, in words (F culmorum [1]) | relative specific antifungal activity (1/IC50), FIG. 6, in words (F culmorum [1]) | reduction of antifungal activity by cations, compared with wild-type Rs-AFP2 (F culmorum [2]) | activity in the presence of 100 mM KCl (F culmorum [2]) | growth inhibition in the presence of 5mM CaCl2 (F culmorum [2]) | IC50 VALUES, A brassicicola, SMF + 1 mM CaCl2/50 mM KCl (Alternaria brassicicola) [µg/mL] | IC50 VALUES, A brassicicola, SMF + 5 mM CaCl2/50 mM KCl (Alternaria brassicicola) [µg/mL] | IC50 VALUES, A brassicicola, SMF (Alternaria brassicicola) [µg/mL] | activity against A brassicola compared with Rs-AFP2, in words (Alternaria brassicicola) | IC50 VALUES, A pisi, SMF + 1 mM CaCl2/50 mM KCl (Ascochyta pisi) [µg/mL] | IC50 VALUES, A pisi, SMF + 5 mM CaCl2/50 mM KCl (Ascochyta pisi) [µg/mL] | IC50 VALUES, A pisi, SMF (Ascochyta pisi) [µg/mL] | activity against A pisi compared with Rs-AFP2, in words (Ascochyta pisi) | IC50 VALUES, B cinerea, SMF + 1 mM CaCl2/50 mM KCl (Botrytis cinerea) [µg/mL] | further results
1 | yRs-AFP2/G9R: yeast-expressed Rs-AFP2 isoform, position 9 glycine to arginine (QKLCQRPSRTWSGVCGNNNACKNQCIRLEKARHGSCNYVFPAHKCICYFPC; listed as Raphanus sativus) | 285 | 116 | 3.3 | 3.0 | approximately two-fold higher | increased antifungal activity | little effect on the antifungal activity | particularly active | less reduced by the presence of cations | fully inhibitory | complete inhibition | >50 | >100 | 2.6 | comparable to the activity of Rs-AFP2 | >50 | >100 | 1.6 | comparable to the activity of Rs-AFP2 | >50 | antifungal activity compared with yRs-AFP2 in high salt (SMF+), in words (F culmorum [1]; Table 1 tests): approximately three times more active than yRs-AFP2; antifungal activity compared with yRs-AFP2 in low salt (SMF−), in words (F culmorum [1]; Table 1 tests): not so significantly different in low salt; IC50 VALUES, B cinerea, SMF + 5 mM CaCl2/50 mM KCl (Botrytis cinerea): >100 µg/mL; IC50 VALUES, B cinerea, SMF (Botrytis cinerea): 1.9 µg/mL; activity against B cinerea compared with Rs-AFP2, in words (Botrytis cinerea): comparable to the activity of Rs-AFP2; IC50 VALUES, F culmorum, SMF + 1 mM CaCl2/50 mM KCl (Fusarium culmorum): 1.5 µg/mL; IC50 VALUES, F culmorum, SMF + 5 mM CaCl2/50 mM KCl (Fusarium culmorum): 7.2 µg/mL; fold activity relative to Rs-AFP2 against F culmorum (Fusarium culmorum): approximately three-fold more active; IC50 VALUES, F culmorum, SMF (Fusarium culmorum): 2.2 µg/mL; IC50 VALUES, N haematococca, SMF + 1 mM CaCl2/50 mM KCl (Nectria haematococca): 16.0 µg/mL; IC50 VALUES, N haematococca, SMF + 5 mM CaCl2/50 mM KCl (Nectria haematococca): 100 µg/mL; fold activity relative to Rs-AFP2 against N haematococca (Nectria haematococca): approximately three-fold more active; IC50 VALUES, N haematococca, SMF (Nectria haematococca): 2.0 µg/mL; IC50 VALUES, P betae, SMF + 1 mM CaCl2/50 mM KCl (Phoma betae): 2.50 µg/mL; IC50 VALUES, P betae, SMF + 5 mM CaCl2/50 mM KCl (Phoma betae): >100 µg/mL; IC50 VALUES, P betae, SMF (Phoma betae): 2.0 µg/mL; IC50 VALUES, V dahliae, SMF + 1 mM CaCl2/50 mM KCl (Verticillium dahliae): 4.0 µg/mL; IC50 VALUES, V dahliae, SMF + 5 mM CaCl2/50 mM KCl (Verticillium dahliae): 17.0 µg/mL; fold activity relative to Rs-AFP2 against V dahliae (Verticillium dahliae): approximately three-fold more active; IC50 VALUES, V dahliae, SMF (Verticillium dahliae): 0.5 µg/mL
2 | yRs-AFP2/V39R: yeast-expressed Rs-AFP2 isoform, position 39 valine to arginine (QKLCQRPSGTWSGVCGNNNACKNQCIRLEKARHGSCNYRFPAHKCICYFPC; listed as Raphanus sativus) | 114 | 74 | 3.2 | 4.0 | approximately two-fold higher | increased antifungal activity | little effect on the antifungal activity | particularly active | less reduced by the presence of cations | fully inhibitory | complete inhibition | 50 | >100 | 2.5 | comparable to the activity of Rs-AFP2 | >50 | >100 | 2.0 | comparable to the activity of Rs-AFP2 | >50 | antifungal activity compared with yRs-AFP2, in words (F culmorum [1]; Table 1 tests, SMF− and SMF+): maintain their antifungal activity; IC50 VALUES, B cinerea, SMF + 5 mM CaCl2/50 mM KCl (Botrytis cinerea): >100 µg/mL; IC50 VALUES, B cinerea, SMF (Botrytis cinerea): 1.6 µg/mL; activity against B cinerea compared with Rs-AFP2, in words (Botrytis cinerea): comparable to the activity of Rs-AFP2; IC50 VALUES, F culmorum, SMF + 1 mM CaCl2/50 mM KCl (Fusarium culmorum): 2.3 µg/mL; IC50 VALUES, F culmorum, SMF + 5 mM CaCl2/50 mM KCl (Fusarium culmorum): 7.0 µg/mL; fold activity relative to Rs-AFP2 against F culmorum (Fusarium culmorum): approximately two-fold more active; IC50 VALUES, F culmorum, SMF (Fusarium culmorum): 2.2 µg/mL; IC50 VALUES, N haematococca, SMF + 1 mM CaCl2/50 mM KCl (Nectria haematococca): 9.0 µg/mL; IC50 VALUES, N haematococca, SMF + 5 mM CaCl2/50 mM KCl (Nectria haematococca): 62.0 µg/mL; fold activity relative to Rs-AFP2 against N haematococca (Nectria haematococca): five-fold more active; IC50 VALUES, N haematococca, SMF (Nectria haematococca): 2.1 µg/mL; IC50 VALUES, P betae, SMF + 1 mM CaCl2/50 mM KCl (Phoma betae): 40.0 µg/mL; IC50 VALUES, P betae, SMF + 5 mM CaCl2/50 mM KCl (Phoma betae): 70.0 µg/mL; IC50 VALUES, P betae, SMF (Phoma betae): 1.4 µg/mL; IC50 VALUES, V dahliae, SMF + 1 mM CaCl2/50 mM KCl (Verticillium dahliae): 2.3 µg/mL; IC50 VALUES, V dahliae, SMF + 5 mM CaCl2/50 mM KCl (Verticillium dahliae): 6.0 µg/mL; fold activity relative to Rs-AFP2 against V dahliae (Verticillium dahliae): five-fold more active; IC50 VALUES, V dahliae, SMF (Verticillium dahliae): 0.4 µg/mL
